Measurements as given in the NIST ThermoML archive (doi:10.1016/j.jct.2012.08.021).

Assays:
[1] = 101 kPa, Liquid, Vibrating tube method
[2] = xn = mol fraction of the nth substance listed; settings: 101 kPa, Liquid, Vibrating tube method, x2 = 0

NCCO [2-aminoethan-1-ol]
[1]
Settings	mass density [kg/m3]
293.16 K	1016.34
303.14 K	1008.4
313.14 K	1000.41
323.15 K	992.384
333.14 K	984.302
343.14 K	976.141
353.14 K	967.893
363.15 K	959.536

CN(CCO)CCO [N-methyldiethanolamine]
[1]
Settings	mass density [kg/m3]
293.15 K	1040.6
303.15 K	1033.02
313.15 K	1025.4
323.15 K	1017.74
333.15 K	1010.03
343.15 K	1002.25
353.14 K	994.404
363.15 K	986.471

OCCNCCO [diethanolamine]
[1]
Settings	mass density [kg/m3]
293.15 K	1097.61
303.15 K	1091.17
313.15 K	1084.6
323.15 K	1077.88
333.14 K	1071.11
343.14 K	1064.25
353.14 K	1057.31
363.15 K	1050.24

C[S+](C)[O-] [dimethyl sulfoxide]
[1]
Settings	mass density [kg/m3]
293.14 K	1100.87
303.15 K	1090.81
313.14 K	1080.77
323.14 K	1070.73
333.15 K	1060.68
343.14 K	1050.62
353.14 K	1040.54
363.15 K	1030.43

C[S+](C)[O-] [dimethyl sulfoxide] + CN(CCO)CCO
[2]
Settings	mass density [kg/m3]
293.14 K	1100.87
303.15 K	1090.81
313.14 K	1080.77
323.14 K	1070.73
333.15 K	1060.68
343.14 K	1050.62
353.14 K	1040.54
363.15 K	1030.43

C[S+](C)[O-] [dimethyl sulfoxide] + NCCO
[2]
Settings	mass density [kg/m3]
293.14 K	1100.87
303.15 K	1090.81
313.14 K	1080.77
323.14 K	1070.73
333.15 K	1060.68
343.14 K	1050.62
353.14 K	1040.54
363.15 K	1030.43

C[S+](C)[O-] [dimethyl sulfoxide] + OCCNCCO
[2]
Settings	mass density [kg/m3]
293.14 K	1100.87
303.15 K	1090.81
313.14 K	1080.77
323.14 K	1070.73
333.15 K	1060.68
343.14 K	1050.62
353.14 K	1040.54
363.15 K	1030.43
